According to patent US20220411372A1, “SMALL-MOLECULE INHIBITORS FOR THE B-CATENIN/B-CELL LYMPHOMA 9 PROTEIN-PROTEIN INTERACTION” (H. Lee Moffitt Cancer Center and Research Institute, Inc., priority 2019, published 2022):

These molecules were tested against T1, β-catenin/BCL9 PPI (Homo sapiens, UniProt P35222) (assay: AlphaScreen competitive inhibition assay of the β-catenin/BCL9 PPI). Settings: Table 2, inhibitors 15-26; read-out: Ki.
T1 construct: Full-length β-catenin (residues 1-781) were cloned into a pET-28b vector; made in house; host or cells: E. coli BL21 DE3 (β-catenin); BCL9 peptide synthesized by InnoPep Inc
T1 sequence (P35222 1-781): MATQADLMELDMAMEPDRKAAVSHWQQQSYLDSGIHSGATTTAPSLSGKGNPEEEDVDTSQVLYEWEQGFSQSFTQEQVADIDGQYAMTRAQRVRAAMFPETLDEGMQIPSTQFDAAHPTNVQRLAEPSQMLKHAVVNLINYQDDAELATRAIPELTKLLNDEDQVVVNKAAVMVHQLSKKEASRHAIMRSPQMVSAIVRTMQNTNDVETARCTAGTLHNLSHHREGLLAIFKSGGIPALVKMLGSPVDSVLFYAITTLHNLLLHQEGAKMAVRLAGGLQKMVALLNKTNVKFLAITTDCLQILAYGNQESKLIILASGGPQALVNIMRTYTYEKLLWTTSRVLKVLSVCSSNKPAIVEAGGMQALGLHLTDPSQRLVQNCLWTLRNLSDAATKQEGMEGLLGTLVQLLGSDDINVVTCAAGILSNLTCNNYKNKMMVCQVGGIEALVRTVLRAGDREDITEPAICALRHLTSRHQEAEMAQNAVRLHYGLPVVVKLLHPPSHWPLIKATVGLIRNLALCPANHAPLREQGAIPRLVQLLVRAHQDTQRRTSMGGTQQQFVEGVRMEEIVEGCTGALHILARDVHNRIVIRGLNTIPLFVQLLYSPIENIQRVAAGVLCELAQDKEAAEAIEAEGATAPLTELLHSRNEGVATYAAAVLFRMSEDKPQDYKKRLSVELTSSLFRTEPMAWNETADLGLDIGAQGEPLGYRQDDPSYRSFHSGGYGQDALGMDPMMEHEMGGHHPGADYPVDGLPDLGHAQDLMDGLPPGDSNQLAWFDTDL
Type: binding
Experimental: AlphaScreen Assays of β-Catenin and BCL9 Interaction. Experiments were performed in white opaque 384-well plates from PerkinElmer (Waltham, Mass.), and the samples were read on a Synergy 2 plate reader (Biotek, Winooski, Vt.) with excitation at 680 nm and emission at 570 nm. The standard AlphaScreen protocol was used with a sensitivity setting of 200. All dilutions were made in 1× assay buffer containing 25 mM Hepes (pH 7.4), 100 mM NaCl, 0.01% Triton X-100 and 0.1% BSA to minimize nonspecific interactions.
For the β-catenin/BCL9 assay, 5 nM biotinylated BCL9 and 40 nM His6-tagged β-catenin were incubated in assay buffer at 4° C. for 30 min. For the β-catenin/E-cadherin assay, 10 nM biotinylated human E-cadherin, and 40 nM His6-tagged human β-catenin were added and incubated in assay buffer at 4° C. for 30 min. Different concentrations of the tested inhibitor were added and incubated in 20 μL assay buffer at 4° C. for another 1 h. All of the assay plates were covered and gently mixed on an orbital shaker. The donor and acceptor beads were then added to the plates to a final concentration of 10 μg/mL in […]. The mixture was incubated for 1 h at 4° C. before detection. The IC50 value was determined by nonlinear least-square analysis of GraphPad Prism 5.0. […] All of the experiments were performed in triplicate and carried out in the presence of 1% DMSO for small-molecule inhibitors. Each compound was assayed at least by two independent experiments. The results were expressed as mean±standard deviation. The inhibitor selectivity for β-catenin/BCL9 over β-catenin/E-canderin interactions was defined as the ratio of the respective Ki value of β-catenin/E-cadherin interactions over that of β-catenin/BCL9 interactions.

Row | Ki [µM] | Compound
1 | ≤ 10 | CC(C)c1ccc(COC(=O)[C@@H]2CCCN(c3cccc(OC(C)(C)C(=O)N4CCNCC4)c3)C2)cc1 [Compound 15, (R)-4-(2-(3-(3-(((4-isopropylbenzyl)oxy)carbonyl)piperidin-1-yl)phenoxy)-2-methylpropanoyl)piperazin-1-ium chloride]
2 | ≤ 10 | CC(C)c1ccc(COC(=O)[C@H]2CCCN(c3cccc(OC(C)(C)C(=O)N4CCNCC4)c3)C2)cc1 [Compound 16, (S)-4-(2-(3-(3-(((4-isopropylbenzyl)oxy)carbonyl)piperidin-1-yl)phenoxy)-2-methylpropanoyl)piperazin-1-ium chloride]
3 | ≤ 10 | CC(C)c1ccc(CNC(=O)[C@@H]2CCCN(c3cccc(OC(C)(C)C(=O)N4CCNCC4)c3)C2)cc1 [Compound 17, (R)-4-(2-(3-(3-((4-isopropylbenzyl)carbamoyl)piperidin-1-yl)phenoxy)-2-methylpropanoyl)piperazin-1-ium chloride]
4 | ≤ 30 | CC(C)c1ccc(CNC(=O)[C@H]2CCCN(c3cccc(OC(C)(C)C(=O)N4CCNCC4)c3)C2)cc1 [Compound 18, (S)-4-(2-(3-(3-((4-isopropylbenzyl)carbamoyl)piperidin-1-yl)phenoxy)-2-methylpropanoyl)piperazin-1-ium chloride]
5 | ≤ 30 | CC(C)c1ccc(CN(C)C(=O)[C@@H]2CCCN(c3cccc(OC(C)(C)C(=O)N4CCNCC4)c3)C2)cc1 [Compound 19, (R)-4-(2-(3-(3-((4-isopropylbenzyl)(methyl)carbamoyl)piperidin-1-yl)phenoxy)-2-methylpropanoyl)piperazin-1-ium chloride]
6 | ≤ 10 | CC(C)c1ccc(CN(C)C(=O)[C@H]2CCCN(c3cccc(OC(C)(C)C(=O)N4CCNCC4)c3)C2)cc1 [Compound 20, (S)-4-(2-(3-(3-((4-isopropylbenzyl)(methyl)carbamoyl)piperidin-1-yl)phenoxy)-2-methylpropanoyl)piperazin-1-ium chloride]
7 | ≤ 30 | CCN(Cc1ccc(C(C)C)cc1)C(=O)[C@@H]1CCCN(c2cccc(OC(C)(C)C(=O)N3CCNCC3)c2)C1 [Compound 21, (R)-4-(2-(3-(3-(ethyl(4-isopropylbenzyl)carbamoyl)piperidin-1-yl)phenoxy)-2-methylpropanoyl)piperazin-1-ium chloride]
8 | ≤ 30 | CCN(Cc1ccc(C(C)C)cc1)C(=O)[C@H]1CCCN(c2cccc(OC(C)(C)C(=O)N3CCNCC3)c2)C1 [Compound 22, (S)-4-(2-(3-(3-(ethyl(4-isopropylbenzyl)carbamoyl)piperidin-1-yl)phenoxy)-2-methylpropanoyl)piperazin-1-ium chloride]
9 | ≤ 10 | CC(C)c1ccc(CN(C(=O)[C@@H]2CCCN(c3cccc(OC(C)(C)C(=O)N4CCNCC4)c3)C2)C(C)C)cc1 [Compound 23, (R)-4-(2-(3-(3-(isopropyl(4-isopropylbenzyl)carbamoyl)piperidin-1-yl)phenoxy)-2-methylpropanoyl)piperazin-1-ium chloride]
10 | ≤ 10 | CC(C)c1ccc(CN(C(=O)[C@H]2CCCN(c3cccc(OC(C)(C)C(=O)N4CCNCC4)c3)C2)C(C)C)cc1 [Compound 24, (S)-4-(2-(3-(3-(isopropyl(4-isopropylbenzyl)carbamoyl)piperidin-1-yl)phenoxy)-2-methylpropanoyl)piperazin-1-ium chloride]
11 | ≤ 5 | CC(C)c1ccc(CN(C(=O)[C@@H]2CCCN(c3cccc(OC(C)(C)C(=O)N4CCNCC4)c3)C2)C2CC2)cc1 [Compound 25, (R)-4-(2-(3-(3-(cyclopropyl(4-isopropylbenzyl)carbamoyl)piperidin-1-yl)phenoxy)-2-methylpropanoyl)piperazin-1-ium chloride]
12 | ≤ 10 | CC(C)c1ccc(CN(C(=O)[C@H]2CCCN(c3cccc(OC(C)(C)C(=O)N4CCNCC4)c3)C2)C2CC2)cc1 [Compound 26, (S)-4-(2-(3-(3-(cyclopropyl(4-isopropylbenzyl)carbamoyl)piperidin-1-yl)phenoxy)-2-methylpropanoyl)piperazin-1-ium chloride]
